These results are taken from US8673371B2, “Composition for treating vitiligo or canities comprising extract from sophora japonica as active ingredient” (Keimyung University Industry Academic Cooperation Foundation, priority 2010, dated 2014).

Series [1] in a line: Electron donating ability (Blois' method, DPPH). The procedure:
Electron donating ability was measured according to the Blois' method (Blois 1958). Freeze-dried powder of Sophora japonica methanol extract was dissolved in DMSO at concentrations of 100, 500 and 1,000 μg/mL. After taking 1 mL to a test tube and adding 4 mL of 4×10^−4 M DPPH solution, followed by agitating in a water bath of 60° C. for 10 seconds and allowing to stand at room temperature for 20 minutes, absorbance was measured at 525 nm. For the non-extract-treated group, 1 mL of methanol was added instead of the sample. Electron donating ability was calculated from the difference in absorbance relative to the non-treated group. The synthetic antioxidant BHT was used as positive control.
In general terms: DPPH is a stable violet radical that fades when it is reduced.

The test system of series [2] is Melan-a cells. Kind of series: Melanin producing ability. It is filed as cell-based, C57BL/6 mouse. The note with it: 12.5 μg/mL. The procedure:
Then, after treating again with the Sophora japonica methanol extract, the cells were further cultured for 72 hours. After dissolving melanin with 1 N NaOH solution, absorbance was measured at 490 nm. IBMX was used as positive control.

The subject of series [3] is tyrosinase. Nature of the series: Intracellular tyrosinase activity. The format is cell-based, C57BL/6 mouse. The following applies: 12.5 μg/mL, Melan-a cells. The protocol: 4-5. […] Then, after removing the medium and washing with PBS, the cells were lysed by adding 200 μL of 1% Triton X-100 solution. The lysed cells were transferred to an e-tube and vortexed on ice with 10-minute intervals. After about 1 hour, centrifuge was carried out at 4° C. and 14,000 rpm for 20 minutes. The supernatant was subjected to tyrosinase activity measurement. Absorbance was measured using a protein assay solution (Bio-Rad, USA), and the protein quantity was calculated. Cell extract containing 40 μg of protein was mixed with the test substance to a total volume of 100 μL. After adding 100 μL of L-DOPA, followed by incubation in a 10% CO2 incubator at 37° C. for 60 minutes, absorbance was measured at 490 nm. IBMX was used as positive control.

In series [4] the target is T1, tyrosinase (Mus musculus, UniProt P11344).
T1 construct: the cells were lysed by adding 200 μL of 1% Triton X-100 solution; endogenous in cells; host or cells: Melan-a cells (immortalized C57BL/6 mouse melanocytes)
T1 sequence (P11344 19-533): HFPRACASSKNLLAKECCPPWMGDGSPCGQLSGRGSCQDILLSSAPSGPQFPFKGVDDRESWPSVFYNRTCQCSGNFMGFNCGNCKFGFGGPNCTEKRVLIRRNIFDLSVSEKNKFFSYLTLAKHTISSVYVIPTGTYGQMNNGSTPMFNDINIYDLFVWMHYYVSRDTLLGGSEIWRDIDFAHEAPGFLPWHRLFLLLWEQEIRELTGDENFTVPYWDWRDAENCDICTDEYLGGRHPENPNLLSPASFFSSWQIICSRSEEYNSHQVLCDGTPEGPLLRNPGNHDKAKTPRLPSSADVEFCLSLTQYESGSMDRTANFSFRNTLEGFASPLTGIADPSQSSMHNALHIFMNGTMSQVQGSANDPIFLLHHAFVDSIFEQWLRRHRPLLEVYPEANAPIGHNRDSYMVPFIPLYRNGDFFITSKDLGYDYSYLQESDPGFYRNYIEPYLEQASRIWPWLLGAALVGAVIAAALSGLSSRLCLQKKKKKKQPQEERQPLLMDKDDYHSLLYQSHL
Nature of the series: Activity of cell-extracted tyrosinase. It is filed as biochemical, C57BL/6 mouse. The following applies: 12.5 μg/mL, Melan-a cell extract. The protocol: After washing with PBS and lysing by adding 200 μL of 1% Triton X-100, the lysed cells were transferred to an e-tube and vortexed on ice with 10-minute intervals. After about 1 hour, centrifuge was carried out at 4° C. and 14,000 rpm for 20 minutes. 50 μL of the supernatant was mixed with 49 μL of 0.1 M phosphate buffer (pH 6.8) and 1 μL of Sophora japonica methanol extract at various concentrations (6.25, 12.5, 25 and 50 μg/mL). After allowing to stand for 1 hour, 100 μL of L-DOPA was added. Then, after incubation in a 10% CO2 incubator at 37° C. for 60 minutes, absorbance was measured at 490 nm. IBMX was used as positive control.

The test system of series [5] is tyrosinase mRNA. Kind of series: RT-PCR, expression of tyrosinase mRNA. It is filed as cell-based, C57BL/6 mouse. The note with it: 12.5 μg/mL, Melan-a cells. The procedure:
(§1) Total RNA was prepared using Trizol reagent (Invitrogen, Caylsbad, Calif.) according to the manufacturer's instructions. 5 μg of total RNA was subjected to reverse transcription with 8 μL of M-MLV RT 5× buffer, 3 μL of 10 mM dNTPs, 0.45 μL of 10,000 U RNase inhibitor, 0.3 μL of 50,000 U M-MLV reverse transcriptase (Promega, Madison, USA) and 1.5 μL of 50 pmol/μL oligo dT (Bioneer, Daejeon, Korea). Single-stranded cDNA was amplified by PCR in a reaction solution containing 4 μL of 5× green Go Taq flexi buffer, 0.4 μL of 10 mM dNTPs, 0.1 μL of 500 U Taq polymerase, 1.2 μL of 25 mM MgCl2 (Promega, Madison, USA) and 0.4 μL of 20 pmol/μL sense and antisense primers of tyrosinase, […] or β-actin. Sequences of the primers used in the PCR and expected PCR product size are shown in Table 1. β-actin was used as internal standard (51° C., 30 cycles), and test substances were tyrosinase (56° C., 28 cycles), TRP-1 (56° C., 28 cycles), TRP-2 (64° C., 28 cycles) and MITF-M (54° C., 30 cycles). The PCR product was analyzed by electrophoresis on 1.2% agarose gel.

Series [6] deals with TRP-1 mRNA. Nature of the series: RT-PCR, expression of TRP-1 mRNA. The format is cell-based, C57BL/6 mouse. The note with it: 12.5 μg/mL, Melan-a cells, not significant. The protocol: as §1
Series [7] concerns TRP-2 mRNA. Kind of series: RT-PCR, expression of TRP-2 mRNA. It is filed as cell-based, C57BL/6 mouse. The following applies: 12.5 μg/mL, Melan-a cells. The procedure: as §1
The test system of series [8] is MITF-M mRNA. Nature of the series: RT-PCR, expression of MITF-M mRNA. It is filed as cell-based, C57BL/6 mouse. The note with it: 12.5 μg/mL, Melan-a cells. The procedure:
as §1

The subject of series [9] is Melan-a cells. The note with it: mouse, 48 h.
Method: Melan-a cells, which are immortalized cells derived from C57BL/6 mouse, were cultured in a 37° C., 10% CO2 incubator using RPMI-1640 medium containing 10% fetal bovine serum (FBS) 1% penicillin/streptomycin (P/S) and 200 nM 12-O-tetradecanoylphorbol 13-acetate (TPA).
The MTT assay is a typical technique of measuring cell viability. Upon absorption into cells, 3-(4,5-Dimethylthiazol-2-yl)-2,5-diphenyltetrazolium bromide (MTT) is reduced by succinate dehydronase in mitochondria to formazan. Thus, accumulation of this substance in cells is a measure of mitochondrial activity or, in a broader sense, cell activity. Melan-a cells were stabilized in RPMI-1640 medium containing 10% FBS, 1% P/S and 200 nM TPA in a 10% CO2 incubator at 37° C. for 48 hours before carrying out experiment. The Melan-a cells were seeded on a 96 well plate (0.5×10^4 cells/well) and cultured in a 10% CO2 incubator at 37° C. for 24 hours. […] After dissolving the cells in a plate shaker for 15 minutes, absorbance was measured at 540 nm using an ELISA reader. Cell proliferation was calculated according to the following equation: Cell proliferation (%)=(Absorbance of extract-treated group/Absorbance of non-extract-treated group)×100.

As to `Cc1cc(C(C)(C)C)c(O)c(C(C)(C)C)c1` [BHT, 2,6-di-tert-butylated hydroxytoluene], the “Electron donating ability, concentration dependence” value in series [1] (100, 500 and 1,000 μg/mL) is on record as “positive (+) concentration-dependent relationship”. The same compound registered an Electron donating ability in series [1] (at 1,000 μg/mL) of 85.0%.

Consider `CC(C)Cn1c(=O)n(C)c(=O)c2[nH]cnc21` [IBMX, 3-isobutyl-1-methylxanthine], for which the “Higher melanin content compared with the control” value in series [2] worked out at 16.7%. Also, the “Higher intracellular tyrosinase activity compared with the control” value in [3] was 22.2%. The “Higher activity of cell-extracted tyrosinase compared with the control” value in series [4] worked out at 21.2%. For the same compound, in series [5], the “Higher expression of tyrosinase mRNA compared with the control” value worked out at 0.31%. Also, the “Higher expression of TRP-1 mRNA compared with the control” value in series [6] turned out to be 2%. For the same compound, the “Higher expression of TRP-2 mRNA compared with the control” value in [7] was 9%. Also, the “Higher expression of MITF-M mRNA compared with the control” value in series [8] is 74%. In addition, the “Maximum permissible level (MPL)” value in series [9] came out at 12.5 µg/mL.
